Read-outs that look alike come from different tables or passages of the source.
What was measured:
KMT9 [1] = biological target: T1, KMT9 (Homo sapiens, UniProt Q9Y5N5); test: Microscale thermophoresis (MST) KMT9 binding
T1 sequence (Q9Y5N5 1-214): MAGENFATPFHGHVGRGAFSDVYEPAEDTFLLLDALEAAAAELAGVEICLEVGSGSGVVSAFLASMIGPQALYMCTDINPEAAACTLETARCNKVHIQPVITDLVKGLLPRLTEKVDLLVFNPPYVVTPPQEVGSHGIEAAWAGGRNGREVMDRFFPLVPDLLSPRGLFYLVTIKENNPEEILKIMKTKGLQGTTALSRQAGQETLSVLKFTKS
T1 sequence (Q9UI30 1-120 isoform Q9UI30-2 partner): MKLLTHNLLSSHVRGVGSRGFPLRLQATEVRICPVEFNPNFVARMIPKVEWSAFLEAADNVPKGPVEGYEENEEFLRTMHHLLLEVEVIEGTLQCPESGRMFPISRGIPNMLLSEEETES
In short: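 His-tagged KMT9 (20 nM), RED-Tris-NTA labelled, titrated with varying compound concentrations in 25 mM HEPES pH 7.5, 100 mM NaCl, 1 mM DTT, 0.05% Tween. MST at 40% MST and 100% LED power, Nano-RED excitation; Kd binned A ≤10 nM, B 10–100, C 100–1000, D >1000 nM.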

KMT9 [2] = biological target: T1, KMT9; test: KMT9 thermal shift assay (SyproOrange); assay type: binding
In short: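 Recombinant KMT9 was incubated with compound and SyproOrange at 25° C in 50 mM BTP pH 8.5, 1 mM MgCl2, 1 mM DTT. It was then heated from 20° C to 95° C at 1° C per 15 s with fluorescence read each step. Tm came from a Boltzmann sigmoidal fit; ΔTm relative to DMSO control, binned in 5 K ranges.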

KMT9 [3] = biological target: T1, KMT9; test: KMT9 methyltransferase inhibition assay, MTaseGlo luminescence (from entry 155); assay type: biochemical; conditions: 100 nM KMT9, 5 μM ETF1, 1 μM SAM
In short: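 KMT9 (100 nM final) pre-incubated with inhibitor for 15 min at room temperature, then reacted with 5 μM ETF1 and 1 μM SAM for 2 h at 30° C. at 2% DMSO final. MTaseGlo luminescence read after 60 min detection; IC50 reported in four potency bins.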

[4] = His-tag labelled KMT9 20 nM, read-out: MST (Kd)
[5] = 500 µM compound, 2 μM KMT9, read-out: Thermal shift (ΔTm)
[6] = MTaseGlo procedure (entries from 155), read-out: Inhibition (IC50)
[7] = microscale thermophoresis, His-tag labelled KMT9 (20 nM), read-out: MST
[8] = ΔTm, 500 µM compound, 2 μM KMT9, 5X SO, read-out: Thermal shift
[9] = from entry 155: MTaseGlo assay, read-out: Inhibition
[10] = His-tag labelled KMT9 20 nM, Kd class, read-out: MST
[11] = ΔTm class, 500 uM compound, 2 μM KMT9, read-out: Thermal shift
[12] = IC50 class, MTaseGlo procedure (entries from 155 on), read-out: Inhibition

Row | SMILES | Kd (KMT9 [1]; [4]) [nM] | ΔTm at 500 µM (KMT9 [2]; [5]) [°C] | IC50 (KMT9 [3]; [6]) [nM] | further results
1 | O[C@@H]1[C@@H](CNCCCNCCc2ccccc2)C[C@@H](n2cc(-c3cc(Cc4ccccc4)cs3)c3cnc(Cl)nc32)[C@@H]1O [Compound 621, (1R,2S,3R,5R)-3-[5-(4-Benzylthiophen-2-yl)-2-chloropyrrolo[2,3-d]pyrimidin-7-yl]-5-[{{3-[(2-phenylethyl)amino]propyl}amino)methyl]cyclopentane-1,2-diol] |  |  |  | Kd (KMT9 [1]; [7]): 100 to 1000 nM; ΔTm at 500 µM (KMT9 [2]; [8]): 15 to 20 °C; IC50 (KMT9 [3]; [9]): 1000 to 10000 nM
2 | NCCc1cccc([C@H]2C[C@@H](n3ccc4c(N)ncnc43)[C@H](O)[C@@H]2O)c1 [Compound 592, (1S,2R,3R,5R)-3-[3-(2-Aminoethyl)phenyl]-5-{4-aminopyrrolo[2,3-d]pyrimidin-7-yl}cyclopentane-1,2-diol] | > 1000 | ≤ 10 | 1000 to 10000 | 
3 | CC(=O)c1cccc([C@H]2C[C@@H](n3ccc4c(N)ncnc43)[C@H](O)[C@@H]2O)c1 [Compound 408, 1-(3-((1R,2R,3S,4R)-4-(4-amino-7H-pyrrolo[2,3-d]pyrimidin-7-yl)-2,3-dihydroxycyclopentyl)phenyl)ethan-1-one] | > 1000 | ≤ 10 | > 10000 | 
4 | Nc1ncnc2c1ccn2[C@@H]1C[C@H](c2cccc(-c3cscn3)c2)[C@@H](O)[C@H]1O [Compound 654, (1R,2S,3R,5R)-3-{4-aminopyrrolo[2,3-d]pyrimidin-7-yl}-5-[3-(1,3-thiazol-4-yl)phenyl]cyclopentane-1,2-diol] |  |  |  | Kd (KMT9 [1]; [10]): > 1000 nM; ΔTm at 500 µM (KMT9 [2]; [11]): ≤ 10 °C; IC50 (KMT9 [3]; [12]): > 10000 nM
5 | CNc1ncnc2c1ccn2[C@@H]1C[C@H](c2ccc(O)cc2)[C@@H](O)[C@H]1O [Compound 406, (1S,2R,3R,5R)-3-(4-hydroxyphenyl)-5-(4-(methylamino)-7H-pyrrolo[2,3-a]pyrimidin-7-yl) cyclopentane-1,2-diol] | > 1000 | ≤ 10 | > 10000 | 
6 | Nc1nc(Cl)nc2c1c(-c1nccs1)cn2[C@@H]1CC(CN(CCCNCCc2ccc(F)cc2)c2cn[nH]c2)[C@@H](O)[C@H]1O (single isomer, unassigned) [Compound 543] | ≤ 10 | > 20 | 100 to 1000 | 
7 | Nc1ncnc2c1ccn2[C@@H]1C[C@H](c2cccc(-c3cncs3)c2)[C@@H](O)[C@H]1O [Compound 653, (1R,2S,3R,5R)-3-(4-amino-7H-pyrrolo[2,3-d]pyrimidin-7-yl)-5-(3-(thiazol-5-yl)phenyl)cyclopentane-1,2-diol] |  |  |  | Kd (KMT9 [1]; [10]): > 1000 nM; ΔTm at 500 µM (KMT9 [2]; [11]): ≤ 10 °C; IC50 (KMT9 [3]; [12]): > 10000 nM
8 | Nc1cccc([C@H]2C[C@@H](n3ccc4c(N)ncnc43)[C@H](O)[C@@H]2O)c1 [Compound 410, (1R,2S,3R,5R)-3-(4-amino-7H-pyrrolo[2,3-d]pyrimidin-7-yl)-5-(3-aminophenyl) cyclopentane-1,2-diol] | > 1000 | ≤ 10 | > 10000 | 
9 | CS(=O)(=O)n1ccc(-c2cn([C@@H]3C[C@H](CNCCCNCCc4ccccc4)[C@@H](O)[C@H]3O)c3ncncc23)n1 [Compound 640, (1R,2S,3R,5R)-3-(5-(1-(Methylsulfonyl)-1H-pyrazol-3-yl)-7H-pyrrolo[2,3-d]pyrimidin-7-yl)-5-(((3-(phenethylamino)propyl)amino)methyl)cyclopentane-1,2-diol] |  |  |  | Kd (KMT9 [1]; [7]): > 1000 nM; ΔTm at 500 µM (KMT9 [2]; [8]): 10 to 15 °C; IC50 (KMT9 [3]; [9]): 1000 to 10000 nM
10 | CN1CCC([C@H]2C[C@@H](n3cc(-c4ccn(Cc5ccccc5)n4)c4cnc(Cl)nc43)[C@H](O)[C@@H]2O)CC1 [Compound 491, (1R,2S,3R,5R)-3-(5-(1-benzyl-1H-pyrazol-3-yl)-2-chloro-7H-pyrrolo[2,3-d]pyrimidin-7-yl)-5-(1-methylpiperidin-4-yl)cyclopentane-1,2-diol] |  |  |  | Kd (KMT9 [1]; [10]): 100 to 1000 nM; ΔTm at 500 µM (KMT9 [2]; [11]): 15 to 20 °C; IC50 (KMT9 [3]; [12]): 100 to 1000 nM
11 | CCN(CCCNCCc1ccc(F)cc1)C[C@H]1C[C@@H](n2cc(-c3ccccc3)c3c(N)nc(Cl)nc32)[C@H](O)[C@@H]1O [Compound 568, (1R,2S,3R,5R)-3-(4-amino-2-chloro-5-phenyl-7//-pyrrolo[2,3-d]pyrimidin-7-yl)-5-((ethyl(3-((4-fluorophenethyl)amino)propyl)amino)methyl)cyclopentane-1,2-diol] |  |  |  | Kd (KMT9 [1]; [10]): 10 to 100 nM; ΔTm at 500 µM (KMT9 [2]; [11]): > 20 °C; IC50 (KMT9 [3]; [12]): 100 to 1000 nM
12 | Nc1ncnc2c1c(-c1nc(Cc3ccccc3)cs1)cn2[C@@H]1C[C@H]([C@@H]2CCNC2)[C@@H](O)[C@H]1O [Compound 589S, (1R,2S,3R,5R)-3-[4-Amino-5-(4-benzyl-1,3-thiazol-2-yl)pyrrolo[2,3-d]pyrimidin-7-yl]-5-[(3S)-pyrrolidin-3-yl]cyclopentane-1,2-diol] |  |  |  | Kd (KMT9 [1]; [10]): 100 to 1000 nM; ΔTm at 500 µM (KMT9 [2]; [11]): 10 to 15 °C; IC50 (KMT9 [3]; [12]): 1000 to 10000 nM
13 | COc1cc(OC)cc([C@H]2C[C@@H](n3cc(Br)c4c(N)nc(Cl)nc43)[C@H](O)[C@@H]2O)c1 [Compound 677, (1R,2S,3R,5R)-3-{4-amino-5-bromo-2-chloropyrrolo[2,3-d]pyrimidin-7-yl}-5-(3,5-dimethoxyphenyl)cyclopentane-1,2-diol] | 10 to 100 | 10 to 15 | 1000 to 10000 | 
14 | COc1cc(Br)cc([C@H]2C[C@@H](n3ccc4c(N)nc(Cl)nc43)[C@H](O)[C@@H]2O)c1 [Compound 666, (1R,2S,3R,5R)-3-(4-amino-2-chloro-7H-pyrrolo[2,3-d]pyrimidin-7-yl)-5-(3-bromo-5-methoxyphenyl)cyclopentane-1,2-diol] | 10 to 100 | 10 to 15 | 100 to 1000 | 
15 | O[C@@H]1[C@@H](CNCCCNCCc2ccccc2)C[C@@H](n2cc(-c3nc(Oc4ccccc4)cs3)c3cncnc32)[C@@H]1O [Compound 639, (1S,2R,3R,5R)-3-(((3-(Phenethylamino)propyl)amino)methyl)-5-(5-(4-phenoxythiazol-2-yl)-7H-pyrrolo[2,3-d]pyrimidin-7-yl)cyclopentane-1,2-diol] |  |  |  | Kd (KMT9 [1]; [7]): > 1000 nM; ΔTm at 500 µM (KMT9 [2]; [8]): 10 to 15 °C; IC50 (KMT9 [3]; [9]): 1000 to 10000 nM

Second part, led by results:

Row | Kd (KMT9 [1]; [4]) [nM] | ΔTm at 500 µM (KMT9 [2]; [5]) [°C] | IC50 (KMT9 [3]; [6]) [nM] | SMILES | further results
16 | 10 to 100 | ≤ 10 | 1000 to 10000 | CNc1nc(Cl)nc2c1ccn2[C@@H]1C[C@H](c2ccc(O)cc2)[C@@H](O)[C@H]1O [Compound 656, (1R,2S,3R,5R)-3-(2-chloro-4-(methylamino)-7H-pyrrolo[2,3-d]pyrimidin-7-yl)-5-(4-hydroxyphenyl)cyclopentane-1,2-diol] | 
17 | 10 to 100 | > 20 | 100 to 1000 | CN(CCCNCCc1ccc(F)cc1)C[C@H]1C[C@@H](n2cc(-c3ccn(C)n3)c3c(N)nc(Cl)nc32)[C@H](O)[C@@H]1O [Compound 645, (1R,2S,3R,5R)-3-[4-Amino-2-chloro-5-(1-methylpyrazol-3-yl)pyrrolo[2,3-d]pyrimidin-7-yl]-5-{[(3-{[2-(4-fluorophenyl)ethyl]amino}propyl)(methyl)amino]methyl}cyclopentane-1,2-diol] | 
18 | 10 to 100 | 15 to 20 | 100 to 1000 | CC(=O)CN1CCC([C@H]2C[C@@H](n3cc(-c4nc(Cc5ccccc5)cs4)c4c(N)nc(Cl)nc43)[C@H](O)[C@@H]2O)CC1 [Compound 510, 1-{4-[(1R,2R,3S,4R)-4-[4-amino-5-(4-benzyl-1,3-thiazol-2-yl)-2-chloropyrrolo[2,3-d]pyrimidin-7-yl]-2,3-dihydroxycyclopentyl]piperidin-1-yl}propan-2-one] | 
19 | > 1000 | ≤ 10 | > 10000 | Nc1ncnc2c1ccn2[C@@H]1C[C@H](c2cccc(Cl)c2)[C@@H](O)[C@H]1O [Compound 407, (1R,2S,3R,5R)-3-(4-amino-7H-pyrrolo[2,3-d]pyrimidin-7-yl)-5-(3-chlorophenyl) cyclopentane-1,2-diol] | 
20 | ≤ 10 | 15 to 20 | 100 to 1000 | Nc1nc(Cl)nc2c1c(-c1nc(Cc3ccccc3)cs1)cn2[C@@H]1C[C@H](C2CCN(CCF)CC2)[C@@H](O)[C@H]1O [Compound 508, (1R,2S,3R)-3-[4-amino-5-(4-benzyl-1,3-thiazol-2-yl)-2-chloropyrrolo[2,3-d]pyrimidin-7-yl]-5-[1-(2-fluoroethyl)piperidin-4-yl]cyclopentane-1,2-diol] | 
21 | 100 to 1000 | ≤ 10 | 1000 to 10000 | NCc1cccc([C@H]2C[C@@H](n3ccc4c(N)ncnc43)[C@H](O)[C@@H]2O)c1 [Compound 659, (1R,2S,3R,5R)-3-(4-Amino-7H-pyrrolo[2,3-d]pyrimidin-7-yl)-5-(3-(aminomethyl)phenyl)cyclopentane-1,2-diol] | 

From US20250188110A1, “SPECIFIC SMALL MOLECULE INHIBITORS THAT BLOCK KMT9 METHYLTRANSFERASE ACTIVITY AND FUNCTION” (ALBERT-LUDWIGS-UNIVERSITÄT FREIBURG, priority 2021, published 2025)
